Where two headings read alike, the source gives them in different places.
Tests used:
Assay type in all cases: biochemical
[1] = target: T1, rat nNOS (Rattus norvegicus, UniProt P29476); assay: NOS enzyme inhibitory assay (hemoglobin capture), nNOS; details: for IC50: rat nNOS, 10 μM L-arginine
T1 construct: made in house; host or cells: E. coli (plasmid pCWnNOS)
Protocol: (§1) All of the NOS isoforms used were recombinant enzymes overexpressed in E. coli from different sources. Nitric oxide formation from NOS was monitored by the hemoglobin capture assay as described in the literature.
After approximately 48 h of post-induction incubation in the dark at 25° C. the cells were pelleted at 5300×g, transferred to 50 mL conical tubes, and stored at −80° C.
nNOS purification: Cell pellets from 2.0 L of culture were resuspended in sonication Buffer A (50 mM Tris Base Buffer, pH 8.0, 10% glycerol), 2 mg/ml lysozyme. 0.5 mM L-arginine. 1 mM EDTA, 0.1 mM PMSF, 1 µg/ml antipain, and 1 μM each of leupeptin, […], and […]) and lysed by sonication. Centrifugation for 1 h at 100000×g yielded supernatant which contained nNOS active enzyme. The supernatant was brought to 2 mM CaCl2 and the protein was loaded onto a 15 ml calmodulin-Sepharose column equilibrated with Buffer A containing 2 mM CaCl2. The column was washed with 100 ml Buffer B (50 mM Hepes, 5 mM DTT, and […]) containing 2 mM CaCl2, 0.5 mM L-arginine, and 10 μM BH4, and eluted with 30 ml Buffer B supplemented with 0.3 M NaCl, 5 mM EGTA, 0.5 mM L-arginine, and 10 μM BH4. The protein was then loaded onto a 5 ml 2′,5′-ADP-Sepharose column equilibrated with Buffer B supplemented with 0.3 M NaCl, 0.5 mM L-arginine, and 10 μM BH4. The column was washed with 25 ml Buffer B containing 0.5 mM L-arginine and 10 μM BH4, and then 25 ml of Buffer B only supplemented with 10 μM BH4 (without L-arginine). Neuronal NOS was eluted with 20 ml Buffer B supplemented with 10 mM 2′(3′)-AMP, 10 μM BH4 and 0.3 M NaCl. The 20 ml eluent was then concentrated to 5 ml by ultrafiltration. The above concentration operation was repeated twice more with 10 ml Buffer B supplemented with 10 µM BH4 to give the purified neuronal NOS.
Nitric oxide formation from NOS was monitored by the hemoglobin capture assay as described previously.
(§2) The selectivity of an inhibitor is defined as the ratio of the respective Ki values.

[2] = target: T2, murine iNOS (Mus musculus, UniProt P29477); assay: NOS enzyme inhibitory assay (hemoglobin capture), iNOS; details: for IC50: murine iNOS, 10 μM L-arginine
T2 construct: made in house; host or cells: E. coli (plasmid pCWiNOS)
Description: as §1
Enzyme inhibitory assay. All of the NOS isoforms used are recombinant enzymes overexpressed in E. coli from different sources.
iNOS expression: An overnight culture of pCWiNOS was used to inoculate (1:100) larger cultures of Terrific Broth media (12 g/L tryptone, 24 g/L yeast extract, 4 mL/L glycerol, 17 mM KH2PO4, and 72 mM K2HPO4) containing 50 μg/mL ampicillin and 34 μg/mL chloramphenicol at 37° C. At an OD600 of ˜0.5, the culture was cooled to 25° C. and induced by the addition of 1 mM IPTG (final concentration). After approximately 24 h of growth at 25° C., the cells were pelleted at 5300×g, transferred to 50 mL conical tubes, and stored at −80° C.
iNOS purification: Cell pellets from 1.0 L of culture were resuspended in sonication buffer (50 mM Hepes, pH 7.4, 10% glycerol, 10 μg/mL benzamidine, 5 μg/mL leupeptin, 0.2 mM of PMSF, and 1 μg/mL each of pepstatin, chymostatin, and antipain) and lysed by sonication. Centrifugation for 20 min at 13000×g yielded supernatant which contained iNOS active enzyme. iNOS supernatant was loaded onto 1 g of a 2′,5′-ADP-Sepharose 4B resin column. The column was then washed with 20 ml iNOS purification buffer (10 mM K2HPO4, 10% glycerol, 0.5 mM L-arginine, pH 7.4) and 10 μM BH4. Inducible NOS was eluted with 30 ml iNOS purification buffer supplemented with 10 mM 2′(3′)-AMP, 10 μM BH4, and 0.3 M NaCl. The eluent was concentrated to 5 ml by ultrafiltration. The above concentration operation was repeated three times more with 10 ml Hepes buffer supplemented with 10 μM BH4, to give purified inducible NOS.
(§3) Nitric oxide formation from NOS was monitored by the hemoglobin capture assay as described previously. (Hevel, J. M.; Marletta, M. A. Nitric Oxide Synthase Assays. Methods Enzymol. 1994, […], 250-258).
as §2

[3] = target: T3, bovine eNOS (Bos taurus, UniProt P29473); assay: NOS enzyme inhibitory assay (hemoglobin capture), eNOS; details: for IC50: bovine eNOS, 10 μM L-arginine, * = no inhibition observed up to the concentration listed
T3 construct: made in house; host or cells: E. coli (plasmid Bov-eNOSpCW)
Protocol: as §1
Expression of bovine eNOS: An overnight culture of Bov-eNOSpCW was used to inoculate 0.5 liter (in a 2.8-liter Fernbach flask) of modified TB (20 g of yeast extract, 10 g of bacto-tryptone, 2.65 g of KH2PO4, 4.33 g of Na2HPO4 and 4 ml of glycerol per liter) containing ampicillin ([…]) and chloramphenicol ([…]). The cultures were grown to an OD600 of z0.8 at 22° C. (200 rpm) and induced with 0.5 mM IPTG. One hour before IPTG induction, d-aminolevulinic acid (0.5 mM final) was added and, at the time of IPTG induction, riboflavin ([…]) and ATP (1 mM final) were also added. After induction, the flasks were kept in the dark at 22° C. (200 rpm). The cells were harvested 48 h after induction, and the cell pellet was frozen at −80° C. until purification was carried out.
Purification of bovine eNOS. The purification was typically carried out with eNOS from 2 liters of E. coli culture. The eNOS protein was purified using a modification of the published protocol for nNOS (14). The cells were resuspended in buffer C [50 mM Tris-Cl, pH 7.8, 1 mM EDTA, 1 mM DTT, 10% glycerol (v/v), 150 mM NaCl, 0.1 mM phenylmethylsulfonyl fluoride, […]], lysed by pulsed sonication and then centrifuged to sediment the cell debris. The supernatant was applied to a 2′,5′-ADP Sepharose 4B column equilibrated in buffer D [50 mM Tris-Cl, pH 7.8, 0.1 mM EDTA, 0.1 mM dithiothreitol, 150 mM NaCl, 10% glycerol (v/v)]. The column was washed with 20 column volumes of buffer B and again with 20 column volumes of buffer B containing 600 mM NaCl. Finally, protein was eluted with buffer B containing 600 mM NaCl and 5 mM 2′-AMP. The fractions were screened for absorption in the Soret region (A400) and hemoprotein-containing fractions were pooled and concentrated (Centriprep 50, Amicon). Repeated dilution/concentration [50 mM Tris-Cl, pH 7.8, 0.1 mM EDTA, 0.1 mM dithiothreitol, 10% glycerol (vol/vol)] was used to reach a final concentration of 150 mM NaCl and commensurately reduce the 2′-AMP content. […] The purified eNOS is stored in the presence of 1 mM L-arginine.
eNOS washing: eNOS contains a significant amount of L-arginine, which will interfere with the enzyme assay. The L-arginine can be removed by several dilution and concentration steps using an Amico concentrator. The dilution buffer is 10 ml Tris-HCl 50 mM containing 0.1 mM EDTA, 400 mM NaCl, 10% glycerol and 1 mM beta-mercaptoethanol. The above dilution and concentration operation was repeated three times to give purified eNOS.
as §3, §2

[4] = Table 1a, apparent Ki calculated from IC50, Km […], read-out: calc. Ki nNOS
[5] = Table 1a, apparent Ki calculated from IC50, Km […], read-out: calc. Ki iNOS
[6] = Table 1a, apparent Ki calculated from IC50, Km 1.7 μM, read-out: calc. Ki eNOS

Compound | Selectivity n/e ([1]; Table 1a, Ki(eNOS)/Ki(nNOS)) | Selectivity n/i ([1]; Table 1a, Ki(iNOS)/Ki(nNOS)) | Ki [1, 4] | IC50 ([1]; Table 1a) | Ki [2, 5] | IC50 ([2]; Table 1a) | Ki [3, 6] | IC50 ([3]; Table 1a) | Selectivity n/e ([1]; Table 1b, ratio of Ki values eNOS/nNOS) | Selectivity n/i ([1]; Table 1b, ratio of Ki values iNOS/nNOS) | Ki ([1]; Table 1b, read-out: Ki nNOS) | Ki ([2]; Table 1b, read-out: Ki iNOS) | Ki ([3]; Table 1b, read-out: Ki eNOS)
Nc1cccc(CC2CNCC2NC2CCN(Cc3ccccc3)C2)n1 (racemic) [Compound P-22] | 6.07 | 11.66 | 17.9 µM | 156 µM | 209 µM | 461 µM | 109 µM | 748 µM | – | – | – | – | –
Cl.Cl.Cl.Nc1cccc(C[C@H]2CNC[C@H]2NCCCc2ccccc2)n1 (racemic) [Compound P-27] | 27.9 | 52.43 | 3.17 µM | 27.5 µM | 166 µM | 366 µM | 88.5 µM | 609 µM | – | – | – | – | –
CN(C)CCNC1CNCC1Cc1cccc(N)n1 (racemic) [Compound P-30] | 42.02 | 58.45 | 3.33 µM | 29 µM | 195 µM | 429 µM | 140 µM | 963 µM | – | – | – | – | –
Nc1cccc(CC2CNCC2NCC(N)Cc2ccccc2)n1 (racemic) [Compound P-31] | >600 | 98.27 | 2.42 µM | 21 µM | 238 µM | 524 µM | > 1450 µM | > 10000 µM | – | – | – | – | –
Nc1cccc(CC2CNCC2NCC(N)Cc2ccccc2)n1 (racemic) [Compound P-32] | >632 | 129.09 | 2.3 µM | 20 µM | 297 µM | 655 µM | > 1450 µM | > 10000 µM | – | – | – | – | –
Nc1cccc(C[C@H]2CNC[C@H]2NCCNCc2ccccc2)n1 (racemic) [Compound P-33] | >8619.5 | 136.36 | 1.18 µM | 10.2 µM | 161 µM | 355 µM | > 10200 µM | > 70000 µM | – | – | – | – | –
Nc1cccc(CC2CNCC2NC2CCNC2)n1 (racemic) [Compound P-34] | 192.54 | 138.06 | 1.26 µM | 11 µM | 174 µM | 384 µM | 243 µM | 1670 µM | – | – | – | – | –
Nc1cccc(CC2CNCC2NC2CCNC2)n1 (racemic) [Compound P-35] | 311.85 | 146.75 | 1.36 µM | 11.8 µM | 200 µM | 440 µM | 424 µM | 2920 µM | – | – | – | – | –
Cc1cc(N)nc(C[C@H]2CNC[C@H]2NCCN)c1.Cl.Cl.Cl.Cl (racemic) [Compound P-46] | 2462.2 | 58 | 0.095 µM | 0.83 µM | 5.5 µM | 12.1 µM | 234 µM | 1610 µM | – | – | – | – | –
Cc1cc(N)nc(C[C@H]2CNC[C@@H]2NCCN)c1.Cl.Cl.Cl.Cl (racemic) [Compound P-47] | 430.7 | 52.5 | 0.61 µM | 5.34 µM | 32 µM | 70.6 µM | 263 µM | 1810 µM | – | – | – | – | –
Cc1cc(N)nc(C[C@H]2CNC[C@H]2NCCNCc2ccc(C(F)(F)F)cc2)c1.Cl.Cl.Cl.Cl (racemic) [Compound P-50] | – | – | – | – | – | – | – | – | 428.4 | 71.5 | 0.197 µM | 14.1 µM | 84.4 µM

Reference: patent US7994326B2 (Northwestern University, priority 2003, dated 2011)
